According to PubChem BioAssay (NCI):
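Values below derive from 48-hour exposures of cells grown in 96-well plates, with endpoints linearly interpolated between the two concentrations bracketing the appropriate inhibition level. At the TGI there is no net growth.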

Columns and labels:
Experiment in all cases: inhibition of tumour cell growth, NCI panel, 48 h
A498 renal = system: A498 renal
TK-10 renal = system: TK-10 renal
SK-OV-3 ovarian = system: SK-OV-3 ovarian
KM12 colon = system: KM12 colon
COLO 205 colon = system: COLO 205 colon
MDA-MB-435 = system: MDA-MB-435
HOP-92 NSCLC = system: HOP-92 NSCLC
OVCAR-4 ovarian = system: OVCAR-4 ovarian
MCF7 breast = system: MCF7 breast
RXF 393 renal = system: RXF 393 renal
HOP-62 NSCLC = system: HOP-62 NSCLC
UACC-257 melanoma = system: UACC-257 melanoma
IGROV1 ovarian = system: IGROV1 ovarian
OVCAR-3 ovarian = system: OVCAR-3 ovarian
NCI-H23 lung = system: NCI-H23 lung
M14 melanoma = system: M14 melanoma
CCRF-CEM leukemia = system: CCRF-CEM leukemia
SK-MEL-28 melanoma = system: SK-MEL-28 melanoma
DU-145 prostate = system: DU-145 prostate
HL-60(TB) leukemia = system: HL-60(TB) leukemia
HCT-15 colon = system: HCT-15 colon
SF-295 CNS = system: SF-295 CNS
BT-549 breast = system: BT-549 breast
SK-MEL-2 melanoma = system: SK-MEL-2 melanoma
786-0 renal = system: 786-0 renal
LOX IMVI melanoma = system: LOX IMVI melanoma
SF-539 CNS = system: SF-539 CNS
EKVX NSCLC = system: EKVX NSCLC
U251 CNS = system: U251 CNS
NCI-H460 lung = system: NCI-H460 lung
NCI/ADR-RES ovarian = system: NCI/ADR-RES ovarian
RPMI-8226 leukemia = system: RPMI-8226 leukemia
SNB-75 CNS = system: SNB-75 CNS
MALME-3M melanoma = system: MALME-3M melanoma
SK-MEL-5 melanoma = system: SK-MEL-5 melanoma
SNB-19 CNS = system: SNB-19 CNS
MDA-MB-231 breast = system: MDA-MB-231 breast
HS 578T breast = system: HS 578T breast
OVCAR-8 ovarian = system: OVCAR-8 ovarian
OVCAR-5 ovarian = system: OVCAR-5 ovarian
T-47D breast = system: T-47D breast
PC-3 prostate = system: PC-3 prostate
SN12C renal = system: SN12C renal
UO-31 renal = system: UO-31 renal
NCI-H226 lung = system: NCI-H226 lung
SF-268 CNS = system: SF-268 CNS
ACHN renal = system: ACHN renal
K-562 leukemia = system: K-562 leukemia
HT29 colon = system: HT29 colon
HCC-2998 colon = system: HCC-2998 colon
UACC-62 melanoma = system: UACC-62 melanoma
HCT-116 colon = system: HCT-116 colon
MOLT-4 leukemia = system: MOLT-4 leukemia
CAKI-1 renal = system: CAKI-1 renal
A549 NSCLC = system: A549 NSCLC
SW-620 colon = system: SW-620 colon
SR leukemia = system: SR leukemia
NCI-H522 lung = system: NCI-H522 lung

`CCOC(=O)c1c(SC)nc(-c2ccc(Cl)cc2)sc1=N` was tested, and the TGI (A498 renal) was > 100 µM, the TGI (TK-10 renal) was > 100 µM and the TGI (SK-OV-3 ovarian) was > 100 µM. The TGI (KM12 colon) was > 100 µM, the TGI (COLO 205 colon) was 44.9 µM and the TGI (MDA-MB-435) was > 100 µM. For the same molecule, the TGI (HOP-92 NSCLC) was > 100 µM, the TGI (OVCAR-4 ovarian) was > 100 µM and the TGI (MCF7 breast) was 83.4 µM. The TGI (RXF 393 renal) was > 100 µM, the TGI (HOP-62 NSCLC) was 95.7 µM and the TGI (UACC-257 melanoma) was > 100 µM. The TGI (IGROV1 ovarian) was 54.5 µM, the TGI (OVCAR-3 ovarian) was > 100 µM and the TGI (NCI-H23 lung) was 80.3 µM. The TGI (M14 melanoma) was > 100 µM, the TGI (CCRF-CEM leukemia) was > 100 µM and the TGI (SK-MEL-28 melanoma) was > 100 µM. For the same molecule, the TGI (DU-145 prostate) was > 100 µM, the TGI (HL-60(TB) leukemia) was 78.7 µM and the TGI (HCT-15 colon) was 73.9 µM. For the same molecule, the TGI (SF-295 CNS) was > 100 µM, the TGI (BT-549 breast) was > 100 µM and the TGI (SK-MEL-2 melanoma) was 52.7 µM. The TGI (786-0 renal) was > 100 µM, the TGI (LOX IMVI melanoma) was > 100 µM and the TGI (SF-539 CNS) was > 100 µM. For the same molecule, the TGI (EKVX NSCLC) was 55.2 µM, the TGI (U251 CNS) was > 100 µM and the TGI (NCI-H460 lung) was > 100 µM. The TGI (NCI/ADR-RES ovarian) was 73.5 µM, the TGI (RPMI-8226 leukemia) was > 100 µM and the TGI (SNB-75 CNS) was 99.4 µM. The TGI (MALME-3M melanoma) was 49 µM, the TGI (SK-MEL-5 melanoma) was 38.8 µM and the TGI (SNB-19 CNS) was > 100 µM. For the same molecule, the TGI (MDA-MB-231 breast) was > 100 µM, the TGI (HS 578T breast) was > 100 µM and the TGI (OVCAR-8 ovarian) was 80 µM. The TGI (OVCAR-5 ovarian) was > 100 µM, the TGI (T-47D breast) was > 100 µM and the TGI (PC-3 prostate) was 61.9 µM. For the same molecule, the TGI (SN12C renal) was > 100 µM, the TGI (UO-31 renal) was > 100 µM and the TGI (NCI-H226 lung) was 80.4 µM. The TGI (SF-268 CNS) was > 100 µM, the TGI (ACHN renal) was > 100 µM and the TGI (K-562 leukemia) was > 100 µM. For the same molecule, the TGI (HT29 colon) was > 100 µM, the TGI (HCC-2998 colon) was 63.9 µM and the TGI (UACC-62 melanoma) was > 100 µM. For the same molecule, the TGI (HCT-116 colon) was 72 µM, the TGI (MOLT-4 leukemia) was 94 µM and the TGI (CAKI-1 renal) was > 100 µM. For the same molecule, the TGI (A549 NSCLC) was > 100 µM and the TGI (SW-620 colon) was > 100 µM.

`CC(C)(C)OC(=O)N(CCCCNC(=O)c1ccccc1)CCCNC(=O)c1ccccc1` was tested, and the TGI (A498 renal) was > 100 µM, the TGI (TK-10 renal) was > 100 µM and the TGI (SK-OV-3 ovarian) was > 100 µM. The TGI (KM12 colon) was > 100 µM, the TGI (COLO 205 colon) was > 100 µM and the TGI (MDA-MB-435) was > 100 µM. The TGI (HOP-92 NSCLC) was > 100 µM, the TGI (OVCAR-4 ovarian) was > 100 µM and the TGI (MCF7 breast) was > 100 µM. The TGI (RXF 393 renal) was > 100 µM, the TGI (HOP-62 NSCLC) was > 100 µM and the TGI (UACC-257 melanoma) was > 100 µM. For the same molecule, the TGI (IGROV1 ovarian) was > 100 µM, the TGI (OVCAR-3 ovarian) was > 100 µM and the TGI (NCI-H23 lung) was > 100 µM. For the same molecule, the TGI (M14 melanoma) was > 100 µM, the TGI (CCRF-CEM leukemia) was > 100 µM and the TGI (SK-MEL-28 melanoma) was > 100 µM. The TGI (DU-145 prostate) was > 100 µM, the TGI (HL-60(TB) leukemia) was > 100 µM and the TGI (HCT-15 colon) was > 100 µM. For the same molecule, the TGI (SF-295 CNS) was > 100 µM, the TGI (BT-549 breast) was > 100 µM and the TGI (SK-MEL-2 melanoma) was > 100 µM. The TGI (786-0 renal) was > 100 µM, the TGI (SR leukemia) was > 100 µM and the TGI (SF-539 CNS) was > 100 µM. For the same molecule, the TGI (EKVX NSCLC) was > 100 µM, the TGI (U251 CNS) was > 100 µM and the TGI (NCI-H460 lung) was > 100 µM. For the same molecule, the TGI (NCI-H522 lung) was > 100 µM, the TGI (NCI/ADR-RES ovarian) was > 100 µM and the TGI (RPMI-8226 leukemia) was > 100 µM. The TGI (SNB-75 CNS) was > 100 µM, the TGI (SK-MEL-5 melanoma) was > 100 µM and the TGI (SNB-19 CNS) was > 100 µM. The TGI (MDA-MB-231 breast) was > 100 µM, the TGI (HS 578T breast) was > 100 µM and the TGI (OVCAR-8 ovarian) was > 100 µM. The TGI (OVCAR-5 ovarian) was > 100 µM, the TGI (T-47D breast) was > 100 µM and the TGI (PC-3 prostate) was > 100 µM. The TGI (SN12C renal) was > 100 µM, the TGI (UO-31 renal) was > 100 µM and the TGI (NCI-H226 lung) was > 100 µM. For the same molecule, the TGI (SF-268 CNS) was > 100 µM, the TGI (ACHN renal) was > 100 µM and the TGI (K-562 leukemia) was > 100 µM. The TGI (HT29 colon) was > 100 µM, the TGI (HCC-2998 colon) was > 100 µM and the TGI (UACC-62 melanoma) was > 100 µM. For the same molecule, the TGI (HCT-116 colon) was > 100 µM, the TGI (MOLT-4 leukemia) was > 100 µM and the TGI (CAKI-1 renal) was > 100 µM. For the same molecule, the TGI (A549 NSCLC) was > 100 µM and the TGI (SW-620 colon) was > 100 µM.
